# Source: PubChem BioAssay AID1645848
# Conditions: buffer; pH 7.4; 6.0 h; 150.0 µM
row,Compound,solubility kinetic
1,O=C(Nc1nc(-c2ccccc2)cs1)c1ccncc1NS(=O)(=O)c1cccc(Cl)c1,< 1 µg/mL
2,Cc1ccc(-c2csc(NC(=O)c3ccccc3NS(=O)(=O)c3ccc(C)cc3)n2)cc1,< 1 µg/mL
3,Cc1ccc(CC(=O)Nc2nc(-c3ccc4c(c3)CCN4C(=O)c3ccccc3C)c(C)s2)cc1C,< 1 µg/mL
4,CCOc1ccc(CCNC(=O)c2cc3ncccc3n2Cc2cccc(C)c2)cc1OCC,36.5 µg/mL
5,Nc1c(C(=O)Nc2ccc(Cl)cc2)sc2nc3c(cc12)N1CCC3CC1,< 1 µg/mL
6,CCN(CC)c1ccc(Nc2nc(Cl)ncc2Br)cc1,4.94 µg/mL
7,O=C(NC1CCN(c2cc(-c3ccc(Cl)cc3)[nH]n2)C1)c1ccccc1 (stereo not drawn),< 1 µg/mL
8,Fc1ccc(Nc2nc(-c3ccncc3)cc3ccccc23)cc1F,1.26 µg/mL
9,CC(=O)Nc1ncc(S(=O)(=O)Nc2cnccc2C(=O)Nc2nc(-c3ccccc3)cs2)s1,56.1 µg/mL
10,c1cn2cc(-c3ccc4cn[nH]c4c3)nc(Nc3ccc(N4CCOCC4)cc3)c2n1,< 1 µg/mL
11,COC(=O)[C@@]12OC[C@]34[C@H]([C@@H](O)[C@@H]1O)[C@@]1(C)CC(=O)C(O)=C(C)[C@@H]1C[C@H]3OC(=O)[C@H](OC(=O)/C=C(\C)C(C)C)[C@@H]24,> 81 µg/mL
12,O=C(Nc1ncc(Cc2ccc(C(F)(F)F)cc2)s1)c1ccc(-c2ccccc2)o1,< 1 µg/mL
13,CC1=C[C@@H](CN2C(=O)C(C)=C(C)C2=O)[C@H](C(C)C)C[C@H]1Cc1nc2c(C)cccc2[nH]1,3.65 µg/mL
14,O=C1Nc2ccccc2/C1=C\c1ccc(C(=O)O)cc1,> 39 µg/mL
15,CS(=O)(=O)c1cccc(-c2csc(N3CCC(C(N)=O)CC3)n2)c1,11.7 µg/mL
16,COc1ccc(-n2c(C)cc(-c3nnc4n3CCCCC4)c2C)cc1,31.9 µg/mL
17,O=S(=O)(Nc1ccc(-c2cccnc2)c2cccnc12)c1cccc(C(F)(F)F)c1,< 1 µg/mL
18,CNc1nc2c(s1)C(c1ccc(Cl)cc1)CC(=O)N2 (stereo not drawn),10.8 µg/mL
19,Cc1ccc(-c2cc(C(=O)Nc3ccc(S(=O)(=O)N(C)C)cc3)c3ccccc3n2)cc1C,< 1 µg/mL
20,Cn1c(=O)c2cc(C(=O)NCCCN3CCN(c4ccccc4F)CC3)sc2c2ccccc21,< 1 µg/mL
21,CC(C)CS(=O)(=O)c1oc(-c2ccc(F)cc2)nc1S(=O)(=O)c1ccccc1,< 1 µg/mL
22,CC(NCc1ccc2c(c1)nc(NC(=O)c1ccc(-c3cn[nH]c3)s1)n2CC(C)(C)O)C(C)(C)C (stereo not drawn),> 73 µg/mL
23,COCCN1CCNc2nc(COc3ccc(C(C)C)cc3)n(Cc3ccccc3)c2C1=O,< 1 µg/mL
24,CCOc1ccccc1C(=O)Nc1ncccc1C(=O)Nc1cccc(S(=O)(=O)C(F)(F)F)c1,< 1 µg/mL
25,COc1ccc(-c2csc(CCn3nc(C)c4c(C(F)(F)F)cc(=O)[nH]c43)n2)cc1,< 1 µg/mL

row,Compound,solubility kinetic
1,CC(C)NC(=O)C1CCN(C(=O)c2cc3sccc3n2Cc2ccc(Cl)cc2)CC1,< 1 µg/mL
2,COc1ccc2[nH]c3c(c2c1)CCNC31CCN(S(=O)(=O)c2c(C)noc2C)CC1,7.38 µg/mL
3,Cc1cc(SCc2sc(-c3ccc(C(F)(F)F)c(F)c3)nc2C)ccc1OCC(=O)O,> 70 µg/mL
4,O=C(Nc1ncc(Cc2ccc(C(F)(F)F)cc2)s1)c1cnc(-c2ccccc2)[nH]1,< 1 µg/mL
5,O=C1CCCC2=C1C(c1[nH]ncc1Cl)N=C(Nc1nc3cccc(Cl)c3o1)N2 (stereo not drawn),< 1 µg/mL
6,CCOc1ccc(CCNC(=O)c2cc3ccccc3n2Cc2ccccn2)cc1OCC,< 1 µg/mL
7,CNc1nc2c(s1)C(c1ccccc1F)CC(=O)N2 (stereo not drawn),13.7 µg/mL
8,COc1ccc2[nH]c(C[C@@H]3C[C@@H](C(C)C)[C@H](CNCc4ccccc4O)C=C3C)nc2n1,42.1 µg/mL
9,CCc1ccc(-n2nc(C)c3c2NC(=O)CSC3c2ccccc2C)cc1 (stereo not drawn),1.11 µg/mL
10,O=c1[nH]cnc2nc[nH]c12,8.8 µg/mL
11,N#Cc1cc(NC(=O)Nc2nnc(-c3ccncc3)s2)ccc1-c1cn[nH]c1,< 1 µg/mL
12,CC(=O)c1c(C)[nH]c(C(=O)Nc2cccc([S+](=O)([O-])Nc3ccccn3)c2)c1C,> 61 µg/mL
13,Cc1ccc(S(=O)(=O)Nc2cnccc2C(=O)Nc2nc(-c3ccncc3)cs2)cc1,> 67 µg/mL
14,CC(C)=CCNc1ncnc2nc[nH]c12,> 30 µg/mL
15,COc1ccc(Nc2cnc3ccc(-c4ccc(OC)c(OC)c4)nn23)cc1,< 1 µg/mL
16,COc1cc(/C=C2\C(=O)Nc3ccccc32)ccc1O,15 µg/mL
17,O=C(Nc1ncc(-c2ccccc2)s1)c1ccc(-c2cccc([N+](=O)[O-])c2)o1,< 1 µg/mL
18,Cc1cnc(NC(=O)c2ccc(-c3cccc([N+](=O)[O-])c3)o2)s1,< 1 µg/mL
19,COC(=O)CNC(=O)c1nc(-c2ccc(F)cc2)c2ccccn12,< 1 µg/mL
20,O=[N+]([O-])c1ccc(-c2nc(Nc3ccc(F)c(F)c3)c3ccccc3n2)cc1,< 1 µg/mL
21,CCC(Sc1nc2ccccc2c2nc(CCc3c(C)n[nH]c3C)nn12)C(=O)Nc1ccc(F)cc1 (stereo not drawn),< 1 µg/mL
22,O=C(Nc1ccc(F)cc1F)c1cc(-c2ccc[nH]2)n[nH]1,> 29 µg/mL
23,CC[C@@]1(O)C(=O)OCc2c1cc1n(c2=O)Cc2c-1nc1cc(F)c(C)c3c1c2[C@@H](N)CC3,31.9 µg/mL
24,Cc1cc(C)c(CNC(=O)c2nc(-c3cccc(CO)c3)cc3c2ccn3C)c(=O)[nH]1,24.7 µg/mL
25,COc1ccc(C2Nc3ccccc3C(=O)N2Cc2ccco2)cc1 (stereo not drawn),12.2 µg/mL

row,Compound,solubility kinetic
1,COc1cccc(CNc2ccc(S(=O)(=O)Nc3cnc4ccccc4c3)cc2)c1O,< 1 µg/mL
2,O=C(O)c1ccnc(-c2cc(C(=O)NCCc3ccccc3)ccn2)c1,> 51 µg/mL
3,Cc1nc(-c2ccccc2)cc([C@H]2CN3CC[C@H]2C[C@@H]3CNC2CCOCC2)n1,> 58 µg/mL
4,COc1ccc(-c2noc([C@@H]3Cc4nc[nH]c4CN3C(=O)NC3CCCCC3)n2)cc1,30.5 µg/mL
5,O=C(Oc1ccc[nH]c1=O)c1cc([N+](=O)[O-])cc([N+](=O)[O-])c1,> 45 µg/mL
6,c1ccc(-c2cn[nH]c2)cc1,> 14 µg/mL
7,CC(Nc1nc(N2CCN(S(C)(=O)=O)CC2)nc2ccccc12)c1ccccc1 (stereo not drawn),11 µg/mL
8,O=C1CCCC2=C1C(c1[nH]ncc1Cl)N=C(Nc1nc3c(Br)cccc3o1)N2 (stereo not drawn),< 1 µg/mL
9,CSc1nnc2c3ccccc3n(CCc3ccccc3)c2n1,< 1 µg/mL
10,CCOc1ccc(CCNC(=O)c2cc3ccccc3n2Cc2cccc(C)c2)cc1OCC,< 1 µg/mL
11,CN1CC=C(c2nc(Nc3ccc(F)c(F)c3)c3ccccc3n2)CC1,33.8 µg/mL
12,CCOc1ccc(CNc2ccc3c(c2)ncn3C)cc1,> 42 µg/mL
13,COC(=O)CNC(=O)c1nc(-c2ccc([S+](C)(=O)[O-])cc2)c2cnccn12,> 57 µg/mL
14,C#C[C@]1(OC(C)=O)CC[C@H]2[C@@H]3CCC4=C/C(=N/O)CC[C@@H]4[C@H]3CC[C@@]21CC,< 1 µg/mL
15,Cc1ccc(-c2ccc(CNc3nc(-c4ccccc4C(C)C)ncc3C)cc2)cn1,< 1 µg/mL
16,COCC(C)Nc1ncnc2c1cnn2-c1ccc(C)c(C)c1 (stereo not drawn),5.58 µg/mL
17,Cc1cc(C)nc(NC(=S)N2CCN(c3ccncc3)CC2)c1,> 48 µg/mL
18,CCOc1ccc(CCNC(=O)c2cc3ccccc3n2Cc2cc(C)cc(C)n2)cc1OCC,< 1 µg/mL
19,Cc1cccc(NCc2ccc(O)c3ncccc23)c1,< 1 µg/mL
20,NC(=O)C1CCN(c2nc(-c3ccc(OCc4ccccc4)cc3)cs2)CC1,< 1 µg/mL
21,O=C(CCCN1CCC(n2c(=O)[nH]c3ccccc32)CC1)c1ccc(F)cc1,33.3 µg/mL
22,O=C(c1cnn(-c2cccc(F)c2)c1-n1cccc1)N1CCN(c2ccccc2F)CC1,1.11 µg/mL
23,O=C(NCCCn1ccnc1)c1nc(-c2ccccc2)cc2[nH]ccc12,> 77 µg/mL
24,C[C@H]1CN(C(=O)Nc2ccc(F)cc2F)C[C@@H]1c1nc(-c2ccccc2)no1,19.3 µg/mL
25,NC(CO)(CO)CCc1ccc(Sc2cccc(OCc3ccccc3)c2)cc1Cl,< 1 µg/mL

row,Compound,solubility kinetic
1,Nc1nc2c(s1)C(c1ccc(F)c(F)c1)CC(=O)N2 (stereo not drawn),> 42 µg/mL
2,COc1ccc(NC(=O)c2[nH]c(C)c(C(C)=O)c2C)cc1S(=O)(=O)N1CCCCC1,34.2 µg/mL
3,CNC1CCC(N(Cc2ccc(OC)c(-c3ccc(C#N)cc3)c2)C(=O)c2sc3ccccc3c2Cl)CC1 (stereo not drawn),16.7 µg/mL
4,Cc1nn2c(c1-c1ccccc1Oc1ccccc1)N(Cc1ccccc1O)CCC2,13.9 µg/mL
5,O=C(Nc1ccc(S(=O)(=O)Nc2nc(-c3ccccc3)cs2)cc1)c1ccc2ccccc2c1,< 1 µg/mL
6,COc1cc(-c2nc(Nc3ccc(F)c(F)c3)c3ccccc3n2)cc(OC)n1,< 1 µg/mL
7,CC(C)CNC(=O)c1cn2cc(-c3ccccc3)sc2n1,5.33 µg/mL
8,CCOC(=O)C1CCN(c2ncc(-c3ccc4c(c3)OCCCO4)s2)CC1,< 1 µg/mL
9,COc1ccc(-c2csc(N3CCC(C(N)=O)CC3)n2)cc1OC,17.5 µg/mL
10,N#Cc1nc(-c2cccc3ccccc23)oc1NC1COC1,< 1 µg/mL
11,CC1=C(C(=O)NCc2ccccc2)C(c2ccccc2Br)N=C(Nc2nc3ccccc3o2)N1 (stereo not drawn),< 1 µg/mL
12,NC(=O)C1CCN(c2nccc(-c3ccc4c(c3)OCCO4)n2)CC1,> 50 µg/mL
13,Cc1cc(NS(=O)(=O)c2ccc(NC(=O)Cc3ccc(Cl)c(Cl)c3)cc2)no1,> 65 µg/mL
14,COc1ccc2c(ccn2CCC(=O)Nc2ccc3c(c2)C(=O)N2CCC[C@H]2C(=O)N3)c1,> 43 µg/mL
15,COc1ccccc1-c1nc(NCc2cnc(C)cn2)c2ccccc2n1,> 53 µg/mL
16,CCc1cccc(CC)c1-n1c(C=C(C)C)c(C(=O)N2CCNCC2)cc(-c2nc(-c3ccc(C(F)(F)F)cc3)cs2)c1=O,< 1 µg/mL
17,Cn1ccc2c(C(=O)NCc3cccnc3)nc(-c3ccc(CO)cc3)cc21,> 82 µg/mL
18,O=S(=O)(Nc1nc2ccccc2s1)c1ccc(NCc2ccc(Br)cc2O)cc1,4.87 µg/mL
19,Oc1c(CN2CCN(c3ccccn3)CC2)cc(Cl)c2cccnc12,11.4 µg/mL
20,CCN(CC)C(=O)c1sc2c(c1C)c(=O)n(Cc1ccccc1)c(=O)n2CC(=O)Nc1ccc(OC)cc1,< 1 µg/mL
21,O=C(c1ccccc1)N1CCC(C(=O)N2CCC(N3Cc4ccccc4C3=O)CC2)CC1,> 43 µg/mL
22,CN(c1ncccc1CNc1nc(Nc2ccc3c(c2)CC(=O)N3)ncc1C(F)(F)F)S(C)(=O)=O,51.7 µg/mL
23,COc1ccccc1C(=O)NC1CCCc2c1[nH]c1c(Cl)cccc21 (stereo not drawn),< 1 µg/mL
